Data: patent publication US10219516B2, “Molecules having pesticidal utility, and intermediates, compositions, and processes, related thereto” (priority 2015, dated 2019)
Where two headings read alike, the source gives them in different places.

Columns and labels:
Type in all cases: in vivo
[1] = test system: Cabbage Looper (Trichoplusia ni, TRIPNI); test: Bioassay on Cabbage Looper (CL), 128-well diet tray assay; conditions: Trichoplusia ni; Species CL (Cabbage Looper); read-out: CL (Biological Results, rating)
In short: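 Test molecule is dissolved in 90:10 acetone-water and applied at 50 μg/cm^2 onto artificial diet, then dried. One to five second-instar larvae go into each of eight wells. Trays, sealed but vented, stay at 25° C., 14:10 light-dark, five to seven days, after which mortality is averaged.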

[2] = test system: Beet Armyworm (Spodoptera exigua, LAPHEG); test: Bioassay on Beet Armyworm (BAW), 128-well diet tray assay; conditions: Species BAW (Beet Armyworm), read-out: BAW (Biological Results, rating)
In short: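 Artificial diet surface-treated with 50 μg/cm^2 test molecule in 90:10 acetone-water, dried, then infested with one to five second instar larvae per well. Held covered and vented at 25° C., 14:10 light-dark for five to seven days; percent mortality recorded per well and averaged over eight wells.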

[3] = test system: Green Peach Aphid (Myzus persicae, MYZUPE); test: Bioassay on Green Peach Aphid (GPA), foliar spray on infested cabbage seedlings; conditions: 72 h
Method: Certain molecules disclosed in this document were tested against GPA using procedures described in the following example. In the reporting of the results, the “GPA & YFM Rating Table” was used (See Table Section).
Cabbage seedlings grown in 3-inch pots, with 2-3 small (3-5 cm) true leaves, were used as test substrate. The seedlings were infested with 20-50 GPA (wingless adult and nymph stages) one day prior to chemical application. Four pots with individual seedlings were used for each treatment. Test molecules (2 mg) were dissolved in 2 mL of acetone/methanol (1:1) solvent, forming stock solutions of 1000 ppm test molecule. The stock solutions were diluted 5× with 0.025% Tween 20 in water to obtain the solution at 200 ppm test molecule. A hand-held aspirator-type sprayer was used for spraying a solution to both sides of […] leaves until runoff. Reference plants (solvent check) were sprayed with the diluent only containing 20% by volume of acetone/methanol (1:1) solvent. Treated plants were held in a holding room for three days at approximately 25° C. and ambient relative humidity (RH) prior to grading. Evaluation was conducted by counting the number of live aphids per plant under a microscope. Percent control was measured using Abbott's correction formula (W. S. Abbott, “A Method of Computing the Effectiveness of an Insecticide” 3. Econ. Entomol. 18 (1925), pp. 265-267) as follows. Corrected % Control=100*(X−Y)/X where X=No. of live aphids on solvent check plants and Y=No. of live aphids on treated plants. The results are indicated in the table entitled “Table ABC: Biological Results” (See Table Section).

[4] = foliar, Species GPA (Green Peach Aphid), read-out: GPA (Biological Results, rating)

| Structure (SMILES) | pest or weed control at 50 µg/cm2 [1] [%] | pest or weed control at 50 µg/cm2 [2] [%] | pest or weed control at 200 µg/mL [3, 4] [%] | pest or weed control at 200 µg/mL ([3]; Green Peach Aphid, foliar spray on cabbage seedlings, read-out: GPA rating) [%] |
| --- | --- | --- | --- | --- |
| O=C(Nc1ccc(Cl)cc1)c1cc(NC(=O)[C@H]2[C@H](c3cc(Cl)cc(Cl)c3)C2(Cl)Cl)ccc1Cl (relative stereo) [F7, trans-2-Chloro-N-(4-chlorophenyl)-5-(2,2-dichloro-3-(3,5-dichlorophenyl)cyclopropane-1-carboxamido)benzamide] | 50 to 100 | 50 to 100 | 0 to 80 | – |
| O=C(Nc1ccc(F)cc1Cl)c1cc(NC(=O)[C@H]2[C@H](c3cc(Cl)cc(Cl)c3)C2(Cl)Cl)ccc1Cl (relative stereo) [F8, trans-2-Chloro-N-(2-chloro-4-fluorophenyl)-5-(2,2-dichloro-3-(3,5-dichlorophenyl)cyclopropane-1-carboxamido)benzamide] | 50 to 100 | 50 to 100 | 80 to 100 | – |
| O=C(Nc1ccc(F)cc1)c1cc(NC(=O)[C@H]2[C@H](c3cc(Cl)cc(Cl)c3)C2(Cl)Cl)ccc1Br (relative stereo) [F11, trans-2-Bromo-5-(2,2-dichloro-3-(3,5-dichlorophenyl)cyclopropane-1-carboxamido)-N-(4-fluorophenyl)benzamide] | 50 to 100 | 50 to 100 | 0 to 80 | – |
| CN(C(=O)c1cc(NC(=O)[C@H]2[C@H](c3cc(Cl)cc(Cl)c3)C2(Cl)Cl)ccc1F)c1ccc(F)cc1 (relative stereo) [F45, trans-5-(2,2-Dichloro-3-(3,5-dichlorophenyl)cyclopropane-1-carboxamido)-2-fluoro-N-(4-fluorophenyl)-N-methylbenzamide] | 50 to 100 | 50 to 100 | 0 to 80 | – |
| O=C(Nc1ccc(F)cc1)c1cc(NC(=O)[C@H]2[C@H](c3cc(Cl)cc(Cl)c3)C2(Cl)Cl)c(F)cc1F (relative stereo) [F49, trans-5-(2,2-Dichloro-3-(3,5-dichlorophenyl)cyclopropane-1-carboxamido)-2,4-difluoro-N-(4-fluorophenyl)benzamide] | 50 to 100 | 50 to 100 | 0 to 80 | – |
| O=C(Nc1ccc(F)cc1)c1cc(NC(=O)[C@H]2[C@H](c3cc(Cl)c(F)c(Cl)c3)C2(Cl)Cl)ccc1Cl (relative stereo) [F96, trans-2-Chloro-5-(2,2-dichloro-3-(3,5-dichloro-4-fluorophenyl)cyclopropane-1-carboxamido)-N-(4-fluorophenyl)benzamide] | 50 to 100 | 50 to 100 | 80 to 100 | – |
| Cc1cc(Cl)cc([C@H]2[C@H](C(=O)Nc3ccc(Cl)c(C(=O)N(C)c4ccc(F)cc4)c3)C2(Cl)Cl)c1 (relative stereo) [F117, trans-2-Chloro-5-(2,2-dichloro-3-(3-chloro-5-methylphenyl)cyclopropane-1-carboxamido)-N-(4-fluorophenyl)-N-methylbenzamide] | 50 to 100 | 50 to 100 | 0 to 80 | – |
| Cc1cc([C@H]2[C@H](C(=O)Nc3ccc(Cl)c(C(=O)N(C)c4ccc(F)cc4)c3)C2(Cl)Cl)cc(Cl)c1Cl (relative stereo) [F124, trans-2-Chloro-5-(2,2-dichloro-3-(3,4-dichloro-5-methylphenyl)cyclopropane-1-carboxamido)-N-(4-fluorophenyl)-N-methylbenzamide] | 50 to 100 | 50 to 100 | 0 to 80 | – |
| O=C(Nc1ccc(F)cc1)c1cc(NC(=O)[C@H]2[C@H](c3cc(Cl)cc(Cl)c3)C2(Cl)Cl)ccn1 (relative stereo) [F126, trans-4-(2,2-dichloro-3-(3,5-dichlorophenyl)cyclopropane-1-carboxamido)-N-(4-fluorophenyl)picolinamide] | 50 to 100 | 50 to 100 | 0 to 80 | – |
| O=C(Nc1ccc(F)cc1)c1cccc(NC(=O)[C@H]2[C@H](c3cc(Cl)cc(Cl)c3)C2(Cl)Cl)c1Cl (relative stereo) [F127, trans-2-Chloro-3-(2,2-dichloro-3-(3,5-dichlorophenyl)cyclopropane-1-carboxamido)-N-(4-fluorophenyl)benzamide] | 50 to 100 | 50 to 100 | 0 to 80 | – |
| COc1ccc(NC(=O)[C@H]2[C@H](c3cc(Cl)cc(Cl)c3)C2(Cl)Cl)cc1C(=O)Nc1ccc(F)cc1 (relative stereo) [F128, trans-5-(2,2-Dichloro-3-(3,5-dichlorophenyl)cyclopropane-1-carboxamido)-N-(4-fluorophenyl)-2-methoxybenzamide] | 50 to 100 | 0 to 50 | 0 to 80 | – |
| O=C(Nc1ccc(F)nc1)c1cc(NC(=O)[C@H]2[C@H](c3cc(Cl)cc(Cl)c3)C2(Cl)Cl)ccc1Cl (relative stereo) [F142, trans-2-chloro-5-(2,2-dichloro-3-(3,5-dichlorophenyl)cyclopropane-1-carboxamido)-N-(6-fluoropyridin-3-yl)benzamide] | 50 to 100 | 50 to 100 | 80 to 100 | – |
| COc1ccc(NC(=O)c2cc(NC(=O)[C@H]3[C@H](c4cc(Cl)cc(Cl)c4)C3(Cl)Cl)ccc2Cl)cc1 (relative stereo) [F146, trans-2-chloro-5-(2,2-dichloro-3-(3,5-dichlorophenyl)cyclopropane-1-carboxamido)-N-(4-methoxyphenyl)benzamide] | 50 to 100 | 50 to 100 | 80 to 100 | – |
| O=C(Nc1ccc(OC(F)(F)F)cc1)c1cc(NC(=O)[C@H]2[C@H](c3cc(Cl)cc(Cl)c3)C2(Cl)Cl)ccc1Cl (relative stereo) [F147, trans-2-Chloro-5-(2,2-dichloro-3-(3,5-dichlorophenyl)cyclopropane-1-carboxamido)-N-(4-(trifluoromethoxy)phenyl)benzamide] | 50 to 100 | 50 to 100 | 0 to 80 | – |
| O=C(Nc1ccc(OC(F)F)cc1)c1cc(NC(=O)[C@H]2[C@H](c3cc(Cl)cc(Cl)c3)C2(Cl)Cl)ccc1Cl (relative stereo) [F148, trans-2-Chloro-5-(2,2-dichloro-3-(3,5-dichlorophenyl)cyclopropane-1-carboxamido)-N-(4-(difluoromethoxy)phenyl)benzamide] | 50 to 100 | 50 to 100 | 0 to 80 | – |
| COc1ccc(NC(=O)c2cc(NC(=O)[C@H]3[C@H](c4cc(Cl)cc(Cl)c4)C3(Cl)Cl)ccc2Cl)c(F)c1 (relative stereo) [F150, trans-2-Chloro-5-(2,2-dichloro-3-(3,5-dichlorophenyl)cyclopropane-1-carboxamido)-N-(2-fluoro-4-methoxyphenyl)benzamide] | 50 to 100 | 50 to 100 | 80 to 100 | – |
| Cc1ccc(NC(=O)c2cc(NC(=O)[C@H]3[C@H](c4cc(Cl)cc(Cl)c4)C3(Cl)Cl)ccc2Cl)c(F)c1 (relative stereo) [F151, trans-2-Chloro-5-(2,2-dichloro-3-(3,5-dichlorophenyl)cyclopropane-1-carboxamido)-N-(2-fluoro-4-methylphenyl)benzamide] | 50 to 100 | 50 to 100 | 80 to 100 | – |
| CNC(=O)c1ccc(NC(=O)c2cc(NC(=O)[C@H]3[C@H](c4cc(Cl)cc(Cl)c4)C3(Cl)Cl)ccc2Cl)cc1 (relative stereo) [F152, trans-2-Chloro-5-(2,2-dichloro-3-(3,5-dichlorophenyl)cyclopropane-1-carboxamido)-N-(4-(methylcarbamoyl)phenyl)benzamide] | 50 to 100 | 50 to 100 | 0 to 80 | – |
| CC(C)(C)OC(=O)Nc1cc(C(F)(F)F)cc(NC(=O)c2cc(NC(=O)[C@H]3[C@H](c4cc(Cl)cc(Cl)c4)C3(Cl)Cl)ccc2Cl)n1 (relative stereo) [F507, tert-Butyl (6-(2-chloro-5-(trans-2,2-dichloro-3-(3,5-dichlorophenyl)cyclopropane-1-carboxamido)benzamido)-4-(trifluoromethyl)pyridin-2-yl)carbamate] | – | – | – | 0 to 80 |
